Results from patent EP0674651B1, “SUBSTITUTED 6-AZAANDROSTENONES” (priority 1992, dated 1994).

Columns and labels:
[1] = biological target: T1, human type 1 5α-reductase (Homo sapiens, UniProt P18405); experiment: 5α-reductase in vitro inhibitory activity, human type 1
T1 sequence (P18405 1-259): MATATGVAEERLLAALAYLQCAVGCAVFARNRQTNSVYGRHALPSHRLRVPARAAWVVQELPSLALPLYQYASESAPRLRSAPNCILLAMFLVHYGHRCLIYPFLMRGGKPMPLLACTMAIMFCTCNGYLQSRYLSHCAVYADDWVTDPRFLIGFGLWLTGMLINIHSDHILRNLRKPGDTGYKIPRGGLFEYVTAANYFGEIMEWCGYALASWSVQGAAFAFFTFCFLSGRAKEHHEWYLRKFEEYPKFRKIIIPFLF

[2] = biological target: T2, human type 2 5α-reductase (Homo sapiens, UniProt P31213); experiment: 5α-reductase in vitro inhibitory activity, human type 2
T2 sequence (P31213 1-254): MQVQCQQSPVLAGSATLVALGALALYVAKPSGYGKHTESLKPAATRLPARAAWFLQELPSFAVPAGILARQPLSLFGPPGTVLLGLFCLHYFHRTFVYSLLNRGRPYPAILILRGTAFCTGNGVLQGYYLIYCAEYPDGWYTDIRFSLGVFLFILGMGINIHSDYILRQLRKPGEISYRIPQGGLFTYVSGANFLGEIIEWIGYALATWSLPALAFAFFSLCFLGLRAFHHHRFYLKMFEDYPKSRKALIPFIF

SMILES | IC50 [1] [nM] | IC50 [2] [nM]
C[C@]12CC[C@H]3[C@@H](CNC4=CC(=O)CC[C@@]43C)[C@@H]1CC[C@@H]2C(=O)Nc1cc(C(F)(F)F)ccc1Oc1ccc(Cl)cc1 [Compound 81, 17β-N-(2-(O-4-Chlorophenyl)-5-trifluoromethyl)phenyl-carbamoyl-6-azaandrost-4-en-3-one] | 10 to 100 | < 10
CCc1ccc(Cl)c(CC)c1NC(=O)[C@H]1CC[C@H]2[C@@H]3CNC4=CC(=O)CC[C@]4(C)[C@H]3CC[C@]12C [Compound 55, 17β-N-(2,6-Diethyl-3-chloro)phenyl-carbamoyl-6-azaandrost-4-en-3-one] | 10 to 100 | < 10
C[C@]12CC[C@H]3[C@@H](CNC4=CC(=O)CC[C@@]43C)[C@@H]1CC[C@@H]2C(=O)NCCSc1ccccc1 [Compound 23, 17β-N-2-(Phenylthio)ethyl-carbamoyl-6-azaandrost-4-en-3-one] | 10 to 100 | < 10
C[C@]12CC[C@H]3[C@@H](CNC4=CC(=O)CC[C@@]43C)[C@@H]1CC[C@@H]2C(=O)Nc1ccccc1S(=O)(=O)c1ccccc1 [Compound 133, 17β-N-(2-Phenylsulfonyl)phenyl-carbamoyl-6-azaandrost-4-en-3-one] | > 100 | < 10
C[C@]12CC[C@H]3[C@@H](CNC4=CC(=O)CC[C@@]43C)[C@@H]1CC[C@@H]2C(=O)Nc1c(Cl)cc(Cl)cc1Cl [Compound 58, 17β-N-(2,4,6-Trichloro)phenyl-carbamoyl-6-azaandrost-4-en-3-one] | 10 to 100 | < 10
CCOc1ccc(OCC)c(NC(=O)[C@H]2CC[C@H]3[C@@H]4CNC5=CC(=O)CC[C@]5(C)[C@H]4CC[C@]23C)c1 [Compound 119, 17β-N-(2,5-Diethoxy)phenyl-carbamoyl-6-azaandrost-4-en-3-one] | 10 to 100 | < 10
C[C@]12CC[C@H]3[C@@H](CNC4=CC(=O)CC[C@@]43C)[C@@H]1CC[C@@H]2C(=O)Nc1cccc(C#N)c1 [Compound 107, 17β-N-(3-Cyano)phenyl-carbamoyl-6-azaandrost-4-en-3-one] | > 100 | < 10
CCOC(=O)c1ccc(NC(=O)[C@H]2CC[C@H]3[C@@H]4CNC5=CC(=O)CC[C@]5(C)[C@H]4CC[C@]23C)cc1 [Compound 134, 17β-N-(4-Carboethoxy)phenyl-carbamoyl-6-azaandrost-4-en-3-one] | 10 to 100 | < 10
CCC(C)(C)c1ccc(Oc2ccccc2)c(NC(=O)[C@H]2CC[C@H]3[C@@H]4CNC5=CC(=O)CC[C@]5(C)[C@H]4CC[C@]23C)c1 [Compound 83, 17β-N-(2-(O-Phenyl)-5-(1,1-dimethyl)propyl)phenyl-carbamoyl-6-azaandrost-4-en-3-one] | 10 to 100 | < 10
C[C@]12CC[C@H]3[C@@H](CNC4=CC(=O)CC[C@@]43C)[C@@H]1CC[C@@H]2C(=O)Nc1cc(C(F)(F)F)ccc1Br [Compound 61, 17β-N-(2-Bromo-5-trifluoromethyl)phenyl-carbamoyl-6-azaandrost-4-en-3-one] | 10 to 100 | < 10
CC(C)C(NC(=O)[C@H]1CC[C@H]2[C@@H]3CNC4=CC(=O)CC[C@]4(C)[C@H]3CC[C@]12C)c1ccc(Cl)cc1 (stereo partly drawn) [Compound 65, 17β-N-(1-(4-Chlorophenyl)-2-methyl)propyl-carbamoyl-6-azaandrost-4-en-3-one] | 10 to 100 | < 10
C[C@]12CC[C@H]3[C@@H](CNC4=CC(=O)CC[C@@]43C)[C@@H]1CC[C@@H]2C(=O)N(C(=O)NC1CCCCC1)C1CCCCC1 [Compound 96, 17β-(N-cyclohexyl-N-(N-cyclohexylcarbamoyl))-carbamoyl-6-azaandrost-4-en-3-one] | 10 to 100 | < 10
CC(C)(C)c1ccc(-c2ccc(C(F)(F)F)cc2NC(=O)[C@H]2CC[C@H]3[C@@H]4CNC5=CC(=O)CC[C@]5(C)[C@H]4CC[C@]23C)cc1 [Compound 135] | > 100 | < 10
C[C@]12CC[C@H]3[C@@H](CNC4=CC(=O)CC[C@@]43C)[C@@H]1CC[C@@H]2C(=O)NNc1ccccc1 [Compound 141, 17β-N-(2-Phenyl)-hydrazidyl-carbamoyl-6-azaandrost-4-en-3-one] | > 100 | < 10
CCc1cccc(CC)c1NC(=O)[C@H]1CC[C@H]2[C@@H]3CNC4=CC(=O)CC[C@]4(C)[C@H]3CC[C@]12C [Compound 76, 17β-N-(2,6-Diethyl)phenyl-carbamoyl-6-azaandrost-4-en-3-one] | 10 to 100 | < 10
CC(C)(C)c1cc(NC(=O)[C@H]2CC[C@H]3[C@@H]4CNC5=CC(=O)CC[C@]5(C)[C@H]4CC[C@]23C)cc(C(C)(C)C)c1 [Compound 86, 17β-N-(3,5-Di-t-butyl)phenyl-carbamoyl-6-azaandrost-4-en-3-one] | < 10 | < 10
CCC1(CC)CC1(NC(=O)[C@H]1CC[C@H]2[C@@H]3CNC4=CC(=O)CC[C@]4(C)[C@H]3CC[C@]12C)c1ccc(-c2ccccc2)cc1 (stereo partly drawn) [Compound 130, 17β-N-(1-(4-Biphenyl)-2,2-diethyl)cyclopropyl-carbamoyl-6-azaandrost-4-en-3-one] | < 10 | < 10
C[C@]12CC[C@H]3[C@@H](CNC4=CC(=O)CC[C@@]43C)[C@@H]1CC[C@@H]2C(=O)Nc1cc(C(F)(F)F)ccc1-c1ccccc1 [Compound 112, 17β-N-(2-Phenyl-5-trifluoromethyl)phenyl-carbamoyl-6-azaandrost-4-en-3-one] | 10 to 100 | < 10
Cc1ccc(Oc2ccc(C(F)(F)F)cc2NC(=O)[C@H]2CC[C@H]3[C@@H]4CNC5=CC(=O)CC[C@]5(C)[C@H]4CC[C@]23C)cc1 [Compound 79, 17β-N-(2-(O-4-Tolyl)-5-trifluoromethyl)phenyl-carbamoyl-6-azaandrost-4-en-3-one] | 10 to 100 | < 10
CC(C)(C)c1ccc(C2(NC(=O)[C@H]3CC[C@H]4[C@@H]5CNC6=CC(=O)CC[C@]6(C)[C@H]5CC[C@]34C)CCCCC2)cc1 [Compound 122, 17β-N-1-(4-t-Butylphenyl)cyclohexyl-carbamoyl-6-azaandrost-4-en-3-one] | < 10 | < 10

Continued, values first:

IC50 [1] [nM] | IC50 [2] [nM] | SMILES
< 10 | < 10 | CCC1(CC)CC1(NC(=O)[C@H]1CC[C@H]2[C@@H]3CNC4=CC(=O)CC[C@]4(C)[C@H]3CC[C@]12C)c1ccc(C(F)(F)F)cc1 (stereo partly drawn) [Compound 131, 17β-N-(1-(4-Trifluoromethylphenyl)-2,2-diethyl)cyclopropyl-carbamoyl-6-azaandrost-4-en-3-one]
< 10 | < 10 | CC(C)c1cccc(C(C)C)c1NC(=O)OC[C@H]1CC[C@H]2[C@@H]3CNC4=CC(=O)CC[C@]4(C)[C@H]3CC[C@]12C [Compound 99, 17β-Hydroxymethyl-(2,6-diisopropylphenylcarbamate)-6-azaandrost-4-en-3-one]
< 10 | < 10 | COc1ccc(C(C)(C)C)cc1NC(=O)[C@H]1CC[C@H]2[C@@H]3CNC4=CC(=O)CC[C@]4(C)[C@H]3CC[C@]12C [Compound 128, 17β-N-(2-Methoxy-5-t-butyl)phenyl-carbamoyl-6-azaandrost-4-en-3-one]
< 10 | < 10 | C[C@]12CC[C@H]3[C@@H](CNC4=CC(=O)CC[C@@]43C)[C@@H]1CC[C@@H]2COC(=O)Oc1ccccc1 [Compound 90, 17β-Hydroxymethyl-(phenylcarbonate)-6-azaandrost-4-en-3-one]
< 10 | < 10 | CCS(=O)(=O)c1ccc(C(F)(F)F)cc1NC(=O)[C@H]1CC[C@H]2[C@@H]3CNC4=CC(=O)CC[C@]4(C)[C@H]3CC[C@]12C [Compound 85, 17β-N-(2-Ethylsulfonyl-5-trifluoromethyl)phenyl-carbamoyl-6-azaandrost-4-en-3-one]
< 10 | < 10 | CC(C)(C)c1ccc(-c2ccc(Cl)cc2)cc1NC(=O)[C@H]1CC[C@H]2[C@@H]3CNC4=CC(=O)CC[C@]4(C)[C@H]3CC[C@]12C [Compound 120, 17β-N-(2-t-Butyl-5-(4-chlorophenyl))phenyl-carbamoyl-6-azaandrost-4-en-3-one]
< 10 | < 10 | C[C@]12CC[C@H]3[C@@H](CNC4=CC(=O)CC[C@@]43C)[C@@H]1CC[C@@H]2C(=O)NC1(c2ccc(Cl)cc2)CCCC1 [Compound 64, 17β-N-1-(4-Chlorophenyl)cyclopentyl-carbamoyl-6-azaandrost-4-en-3-one]
< 10 | < 10 | CC(C)(C)c1ccc(C2(NC(=O)[C@H]3CC[C@H]4[C@@H]5CNC6=CC(=O)CC[C@]6(C)[C@H]5CC[C@]34C)CCCCCC2)cc1 [Compound 136, 17β-N-1-(4-t-Butylphenyl)cycloheptyl-carbamoyl-6-azaandrost-4-en-3-one]
< 10 | < 10 | CC(C)(C)c1cc(Br)ccc1NC(=O)[C@H]1CC[C@H]2[C@@H]3CNC4=CC(=O)CC[C@]4(C)[C@H]3CC[C@]12C [Compound 77, 17β-N-(4-Bromo-2-t-butyl)phenyl-carbamoyl-6-azaandrost-4-en-3-one]
< 10 | < 10 | COc1ccc(C2(NC(=O)[C@H]3CC[C@H]4[C@@H]5CNC6=CC(=O)CC[C@]6(C)[C@H]5CC[C@]34C)CCCC2)cc1 [Compound 115, 17β-N-1-(4-Methoxyphenyl)cyclopentyl-carbamoyl-6-azaandrost-4-en-3-one]
